Reference: patent US6462055B2, “Alpha-methylbenzyl-containing thiourea inhibitors of herpes viruses containing a phenylenediamine group” (Wyeth, priority 1998, dated 2002)
≈ marks a conversion by molar mass, not a printed value.

How the values were obtained:
[1] = test system: HCMV recombinant mutant virus (RV145); test: microbe, parasite or virus in culture; type: cell-based, human cytomegalovirus; conditions: for IC50: Human betaherpesvirus 5, read-out: IC50 ug/ml HCMV, HCMV
Procedure, shortened: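 Human foreskin fibroblasts infected with HCMV RV145 carrying a viral-promoter-driven beta-glucuronidase gene, in presence of compound. At 96 h post-infection, lysates assayed for beta-glucuronidase with colorimetric or fluorogenic glucuronide substrate as replication read-out. IC50 estimated from varying inhibitor amounts.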

HSV-1 = test: HSV Antiviral (ELISA) Assay in Vero cells; type: cell-based, herpes simplex virus type 1; conditions: HSV-1, Vero cells; for IC50: Human alphaherpesvirus 1, read-out: IC50 (ug/ml) HSV
Procedure, shortened: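 Viral replication was quantified by cell-fixed ELISA for HSV glycoprotein D, using a β-galactosidase reporter and fluorogenic umbelliferyl substrate, about 24 h after HSV-1 infection (MOI 0.006) of Vero cells. Compounds, at several concentrations, were added 30 min pre-infection. IC50 was derived from fluorescence relative to the compound-free signal.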

VZV strain Ellen = test: VZV Antiviral (ELISA) Assay in human foreskin fibroblast cells; type: cell-based, varicella-zoster virus; conditions: for IC50: Human alphaherpesvirus 3, Fibroblast, read-out: IC50 (ug/ml) VZV
Procedure, shortened: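 First, fibroblasts are infected at multiplicity below 0.1 and kept overnight. The harvested cell mixture then goes onto compound-containing wells for three days at 37° C. Finally, cells are fixed and viral gpII is measured by fluorogenic ELISA.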

Compound | IC50 [1] | IC50 (HSV-1) | IC50 (VZV strain Ellen) | IC50 ug/ml HCMV [1] | IC50 (ug/ml) HSV (HSV-1) | IC50 (ug/ml) VZV (VZV strain Ellen) | % inhibition 10 ug/ml VZV (VZV strain Ellen)
COc1ccc(NC(=S)Nc2ccc(NC(=O)c3ccccc3F)cc2)cc1C(F)(F)F [Example 998, 2-Fluoro-N-{4-[3-(4-methoxy-3-trifluoromethyl-phenyl)-thioureido]-phenyl}-benzamide] | > 10 µg/mL | 3 µg/mL (≈ 6.47 µM) | 5 µg/mL (≈ 10.8 µM) |  |  |  | 
O=C(Nc1ccc(NC(=S)Nc2ccc(Cl)cc2O)cc1)c1ccccc1F [Example 1001, N-{4-[3-(4-Chloro-2-hydroxy-phenyl)-thioureido]-phenyl}-2-fluoro-benzamide] | 2.6 µg/mL (≈ 6.25 µM) | 4.3 µg/mL (≈ 10.3 µM) | 3.6 µg/mL (≈ 8.66 µM) |  |  |  | 
CC(NC(=S)Nc1ccc(NC(=O)c2ccccc2F)cc1)c1cc2ccccc2o1 (centres unmarked) [Example 1002, N-{4-[3-(1-Benzofuran-2-yl-ethyl)-thioureid]-phenyl}-2-fluoro-benzamide] |  |  |  | 2.1 µg/mL (≈ 4.84 µM) | >10 µg/mL | 0.08 µg/mL (≈ 0.185 µM) | 
Cc1ccc(NC(=S)Nc2ccc(NC(=O)c3ccccc3F)cc2)cc1C(F)(F)F [Example 1003, 2-Fluoro-N-{4-[3-(4-methyl-3-trifluoromethyl-phenyl)-thioureido]-phenyl}-benzamide] | > 10 µg/mL | > 10 µg/mL | > 10 µg/mL |  |  |  | 
CC(NC(=S)Nc1ccc(NC(=O)c2ccccc2F)cc1)c1ccc(S(=O)(=O)N2CCCCC2)cc1 (centres unmarked) [Example 1009] |  |  |  | >10 µg/mL | >10 µg/mL | >10 µg/mL | 
O=C(Nc1ccc(NC(=S)Nc2ccc(OCC(F)(F)F)cc2OCC(F)(F)F)cc1)c1ccccc1F [Example 1010, N-(4-{3-[2,4-Bis-(2,2,2-trifluoro-ethoxy)-phenyl]-thioureido}-phenyl)-2-fluoro-benzamide] | > 10 µg/mL | > 10 µg/mL | > 10 µg/mL |  |  |  | 
COc1ccccc1C(=O)Nc1ccc(NC(=S)NC(C)c2ccc(C#N)cc2)cc1 (centres unmarked) [Example 1017, N-(4-{3-[1-(4-Cyano-phenyl)-ethyl]-thioureido}-phenyl)-2-methoxy-benzamide] | > 10 µg/mL | > 10 µg/mL | 0.3 µg/mL (≈ 0.697 µM) |  |  |  | 
COc1ccccc1C(=O)Nc1ccc(NC(=S)NC(C)c2cc3ccccc3o2)cc1 (centres unmarked) [Example 1018, N-{4-[3-(1-Benzofuran-2-yl-ethyl)-thioureido]-phenyl}-2-methoxy-benzamide] | > 10 µg/mL | > 10 µg/mL | 0.09 µg/mL (≈ 0.202 µM) |  |  |  | 
COc1ccccc1C(=O)Nc1ccc(NC(=S)NC(C)c2ccc(Br)cc2)cc1 (centres unmarked) [Example 1019, N-(4-{3-[1-(4-Bromo-phenyl)-ethyl]-thioureido}-phenyl)-2-methoxy-benzamide] | 2.6 µg/mL (≈ 5.37 µM) | > 10 µg/mL | 0.05 µg/mL (≈ 0.103 µM) |  |  |  | 
CC(NC(=S)Nc1ccc(NC(=O)c2ccc(C(F)(F)F)cc2)cc1)c1ccc(F)cc1 (centres unmarked) [Example 1021, N-(4-{3-[1-(4-Fluorophenyl)-ethyl]-thioureido}-phenyl)-4-trifluoromethyl-benzamide] | > 10 µg/mL | > 10 µg/mL | 0.4 µg/mL (≈ 0.867 µM) |  |  |  | 
N-{4-[3-(3-Butylsulfonyl-phenyl)-thioureido]-phenyl}-2-fluoro-benzamide [Example 966] |  |  |  | 2.5 µg/mL | 7 µg/mL | 8 µg/mL | 95%
N-{4-[3-(3-Chloro-4-methoxy-phenyl)-thioureido]-phenyl}-4-methoxy-benzamide [Example 821] |  |  |  | 1 µg/mL | 0.15 µg/mL | >10 µg/mL | 55%
